What all share (assay type): functional
Test [1] concerns Alternaria. As to the kind of experiment: Antifungal activity against Alternaria assessed as fungal growth inhibition measured after 7 days by agar disc diffusion assay. The note with it: 168 h, time 7 day. (In general: A growth-free zone around the sample is the usual read-out of agar diffusion tests.)
The test system of test [2] is Escherichia coli. The test can be described thus: Antibacterial activity against Escherichia coli ATCC 25922 assessed as bacterial growth inhibition by agar disc diffusion assay.
The test system of test [3] is Staphylococcus aureus. The test can be described thus: Antibacterial activity against Staphylococcus aureus ATCC 25923 assessed as bacterial growth inhibition by agar disc diffusion assay.
Test [4] concerns Staphylococcus aureus. The test can be described thus: Antibacterial activity against Staphylococcus aureus clinical isolate 1 assessed as bacterial growth inhibition by agar disc diffusion assay.
For test [5], the system named is Pseudomonas aeruginosa. The test can be described thus: Antibacterial activity against Pseudomonas aeruginosa clinical isolate 1 assessed as bacterial growth inhibition by agar disc diffusion assay.
In test [6] the test system is Fusarium oxysporum f. sp. lycopersici. As to the kind of experiment: Antifungal activity against Fusarium oxysporum f. sp. lycopersici assessed as fungal growth inhibition measured after 7 days by agar disc diffusion assay. The note with it: 168 h, time 7 day.
For test [7], the system named is Escherichia coli. As to the kind of experiment: Antibacterial activity against Escherichia coli clinical isolate 1 assessed as bacterial growth inhibition by agar disc diffusion assay.
Test [8] has as its system Pseudomonas aeruginosa. As to the kind of experiment: Antibacterial activity against Pseudomonas aeruginosa ATCC 27853 assessed as bacterial growth inhibition by agar disc diffusion assay.
The test system of test [9] is Staphylococcus aureus. The test can be described thus: Antibacterial activity against methicillin resistant Staphylococcus aureus assessed as bacterial growth inhibition measured after 24 hrs by serial dilution method.
For test [10], the system named is Escherichia coli. As to the kind of experiment: Antibacterial activity against Escherichia coli assessed as bacterial growth inhibition measured after 24 hrs by serial dilution method.
The subject of test [11] is Escherichia coli. The test can be described thus: Antibacterial activity against Escherichia coli assessed as bacterial growth inhibition by serial dilution method.
The test system of test [12] is Acinetobacter baumannii. As to the kind of experiment: Antibacterial activity against Acinetobacter baumannii assessed as bacterial growth inhibition by serial dilution method.
Test [13] has as its system Pseudomonas aeruginosa. The test can be described thus: Antibacterial activity against Pseudomonas aeruginosa assessed as bacterial growth inhibition by serial dilution method.
For test [14], the system named is Klebsiella pneumoniae. As to the kind of experiment: Antibacterial activity against Klebsiella pneumoniae assessed as bacterial growth inhibition by serial dilution method.
The test system of test [15] is Staphylococcus aureus. As to the kind of experiment: Antibacterial activity against Staphylococcus aureus assessed as bacterial growth inhibition by serial dilution method.
Test [16] has as its system Escherichia coli. As to the kind of experiment: Antibacterial activity against Escherichia coli assessed as zone of inhibition at 250 ug/ml by agar well diffusion assay. The note with it: read-out: IZ.
Test [17] deals with Klebsiella pneumoniae. As to the kind of experiment: Antibacterial activity against Klebsiella pneumoniae assessed as zone of inhibition at 250 ug/ml by agar well diffusion assay. The note with it: read-out: IZ.
Test [18] concerns Staphylococcus aureus. As to the kind of experiment: Antibacterial activity against Staphylococcus aureus assessed as zone of inhibition at 250 ug/ml by agar well diffusion assay. The note with it: read-out: IZ.
The subject of test [19] is Staphylococcus aureus. The test can be described thus: Antibacterial activity against vancomycin-intermediate methicillin resistant Staphylococcus aureus ATCC 700788 assessed as bacterial growth inhibition measured after 16 to 18 hrs by serial dilution method. The note with it: time 16-18 hrs.
Test [20] relates to Pseudomonas aeruginosa. As to the kind of experiment: Antibacterial activity against Pseudomonas aeruginosa assessed as zone of inhibition at 250 ug/ml by agar well diffusion assay. The note with it: read-out: IZ.
Test [21] relates to Staphylococcus aureus. As to the kind of experiment: Antibacterial activity against Staphylococcus aureus ATCC 6538p assessed as bacterial growth inhibition by agar dilution method.
Test [22] has as its system Enterobacter cloacae. The test can be described thus: Antibacterial activity against Enterobacter cloacae PTCC 1003 assessed as bacterial growth inhibition by agar dilution method. Background: Agar dilution tests growth on a series of plates holding different concentrations.
Test [23] deals with Staphylococcus epidermidis. As to the kind of experiment: Antibacterial activity against Staphylococcus epidermidis ATCC 12228 assessed as bacterial growth inhibition by agar dilution method.
Test [24] relates to Escherichia coli. The test can be described thus: Antibacterial activity against Escherichia coli ATCC 8739 assessed as bacterial growth inhibition by agar dilution method.
In test [25] the test system is Klebsiella pneumoniae. As to the kind of experiment: Antibacterial activity against Klebsiella pneumoniae ATCC 10031 assessed as bacterial growth inhibition by agar dilution method.
Test [26] has as its system Bacillus subtilis. The test can be described thus: Antibacterial activity against Bacillus subtilis PTCC 1023 assessed as bacterial growth inhibition by agar dilution method.
The test system of test [27] is Aspergillus fumigatus. As to the kind of experiment: Antifungal activity against Aspergillus fumigatus assessed as fungal growth inhibition by agar cup diffusion assay.
The subject of test [28] is Candida albicans. As to the kind of experiment: Antifungal activity against Candida albicans assessed as fungal growth inhibition measured after 24 hrs by agar cup diffusion assay.
Test [29] deals with Aspergillus niger. As to the kind of experiment: Antifungal activity against Aspergillus niger assessed as fungal growth inhibition by agar cup diffusion assay.
The subject of test [30] is Staphylococcus aureus. The test can be described thus: Antibacterial activity against clinical isolate erythromycin/methicillin resistant Staphylococcus aureus NRS 70 assessed as bacterial growth inhibition measured after 16 to 18 hrs by serial dilution method. The note with it: time 16-18 hrs.
The test system of test [31] is Staphylococcus aureus. As to the kind of experiment: Antibacterial activity against vancomycin-intermediate methicillin resistant Staphylococcus aureus ATCC 700699 assessed as bacterial growth inhibition measured after 16 to 18 hrs by serial dilution method. The note with it: time 16-18 hrs.
Test [32] concerns Staphylococcus aureus. The test can be described thus: Antibacterial activity against fluoroquinolone/methicillin resistant Staphylococcus aureus clinical isolate 19-25 assessed as bacterial growth inhibition measured after 16 to 18 hrs by serial dilution method. The note with it: time 16-18 hrs.
Test [33] relates to Staphylococcus aureus. As to the kind of experiment: Antibacterial activity against fluoroquinolone/methicillin resistant Staphylococcus aureus clinical isolate 19-27 assessed as bacterial growth inhibition measured after 16 to 18 hrs by serial dilution method. The note with it: time 16-18 hrs.
Test [34] relates to Staphylococcus aureus. As to the kind of experiment: Antibacterial activity against clinical isolate oxacillin/tetracycline/methicillin resistant Staphylococcus aureus NRS 100 assessed as bacterial growth inhibition measured after 16 to 18 hrs by serial dilution method. The note with it: time 16-18 hrs.
Test [35] deals with Staphylococcus aureus. As to the kind of experiment: Antibacterial activity against Staphylococcus aureus Newman assessed as bacterial growth inhibition measured after 16 to 18 hrs by serial dilution method. The note with it: time 16-18 hrs.
The test system of test [36] is Staphylococcus aureus. As to the kind of experiment: Antibacterial activity against clinical isolate aminoglycosides/tetracycline/methicillin resistant Staphylococcus aureus NRS 1 assessed as bacterial growth inhibition measured after 16 to 18 hrs by serial dilution method. The note with it: time 16-18 hrs.
Test [37] concerns Staphylococcus aureus. As to the kind of experiment: Antibacterial activity against fluoroquinolone/methicillin resistant Staphylococcus aureus clinical isolate 19-26 assessed as bacterial growth inhibition measured after 16 to 18 hrs by serial dilution method. The note with it: time 16-18 hrs.
The test system of test [38] is Staphylococcus aureus. The test can be described thus: Antibacterial activity against clinical isolate linezolid/methicillin resistant Staphylococcus aureus NRS 271 assessed as bacterial growth inhibition measured after 16 to 18 hrs by serial dilution method. The note with it: time 16-18 hrs.
Test [39] deals with Staphylococcus aureus. The test can be described thus: Antibacterial activity against methicillin resistant Staphylococcus aureus ATCC 33591 assessed as bacterial growth inhibition measured after 16 to 18 hrs by serial dilution method. The note with it: time 16-18 hrs.
The subject of test [40] is Staphylococcus aureus. The test can be described thus: Antibacterial activity against methicillin resistant Staphylococcus aureus ATCC 43300 assessed as bacterial growth inhibition measured after 16 to 18 hrs by serial dilution method. The note with it: time 16-18 hrs.
Test [41] has as its system Staphylococcus aureus. The test can be described thus: Antibacterial activity against clinical isolate gentamycin/methicillin resistant Staphylococcus aureus NRS 108 assessed as bacterial growth inhibition measured after 16 to 18 hrs by serial dilution method. The note with it: time 16-18 hrs.

Values after ≈ are worked out from the molar mass of the structure shown.

What is called MIC is the smallest concentration in the dilution series that meets the test's criterion for growth inhibition. For the compound `CCOP(=O)(OCC)C(NS(=O)(=O)Nc1ccc(F)cc1)c1cc2cccc(C)c2[nH]c1=O` (centres undefined), the MIC in [1] worked out at 0.125 µg/mL (≈ 0.251 µM); in test [2] it was 0.5 µg/mL (≈ 1.01 µM); in [3] it was 0.5 µg/mL (≈ 1.01 µM); in test [4], 0.5 µg/mL (≈ 1.01 µM); in test [5], 0.5 µg/mL (≈ 1.01 µM); in test [6] it was 0.125 µg/mL (≈ 0.251 µM). The MIC in [7] and in [8] was 0.5 µg/mL (≈ 1.01 µM) in each case.

As to `COc1c(N2CCCC(N(C)C(=O)c3cccnc3)C2)c(F)cc2c(=O)c(C(=O)O)cn(C3CC3)c12` (centres undefined), the MIC in [9] and in test [10] was 0.078 µg/mL (≈ 0.158 µM) in each case.

Turning to `Cc1ccc(/N=C(\N2CCN(c3cc4c(cc3F)c(=O)c(C(=O)O)cn4C3CC3)CC2)C(F)(F)F)cc1`, the MIC in test [11], in test [12], in test [13], in test [14] and in test [15] was 0.039 µg/mL (≈ 0.0755 µM) throughout.

For `Cc1ncc([N+](=O)[O-])n1CC(C)OC(=O)c1cn(C2CC2)c2cc(N3CCNCC3)c(F)cc2c1=O` (centres undefined), the zone of inhibition at 250 µg/mL in test [16], in test [17], in test [18] and in test [20] was 25 mm each time. Also, in [19], the MIC is no more than 0.17 µg/mL.

Turning to `COc1cc(OC)nc(/N=N/N2CCN(c3cc4c(cc3F)c(=O)c(C(=O)C(C(C)=O)C(C)=O)cn4C3CC3)CC2)n1`, the MIC in test [21], in test [22], in [23], in [24], in test [25] and in [26] was 0.015 µg/mL (≈ 0.0259 µM) each time.

In the case of `CC(=O)N1CCN(c2ccc(OCC3COC(Cn4ccnc4)(c4ccc(Cl)cc4Cl)O3)cc2)CC1` (centres undefined) [KETOCONAZOLE], the MIC was determined as 11.4 µg/mL (≈ 21.5 µM) in test [27], 2.6 µg/mL (≈ 4.89 µM) in test [28] and 10.8 µg/mL (≈ 20.3 µM) in test [29].

With `COc1c(N2C[C@@H]3CCCN[C@@H]3C2)c(F)cc2c(=O)c(C(=O)O)cn(C3CC3)c12` [MOXIFLOXACIN], the MIC in [9] and in [10] was 0.078 µg/mL (≈ 0.194 µM) in each case.

Take `CN[C@H](CC(C)C)C(=O)N[C@H]1C(=O)N[C@@H](CC(N)=O)C(=O)N[C@H]2C(=O)N[C@H]3C(=O)N[C@H](C(=O)N[C@H](C(=O)O)c4cc(O)cc(O)c4-c4cc3ccc4O)[C@H](O)c3ccc(c(Cl)c3)Oc3cc2cc(c3O[C@@H]2O[C@H](CO)[C@@H](O)[C@H](O)[C@H]2O[C@H]2C[C@](C)(N)[C@H](O)[C@H](C)O2)Oc2ccc(cc2Cl)[C@H]1O` [VANCOMYCIN]: the MIC in test [30], in [31], in [32], in [33], in test [34] and in [35] was 0.78 µg/mL (≈ 0.538 µM) each time. The MIC in test [36], in test [19], in test [37], in [38], in test [39] and in test [40] was 0.78 µg/mL (≈ 0.538 µM) in each case. Besides, the MIC in test [41] was 0.78 µg/mL (≈ 0.538 µM).

The values above are taken from ChEMBL document CHEMBL5360532, “Current scenario of quinolone hybrids with potential antibacterial activity against ESKAPE pathogens” (Eur J Med Chem, 2023).
